# Reference: ChEMBL document CHEMBL1156625, “NMR screening for lead compounds using tryptophan-mutated proteins” (J Med Chem, 2008)
# Assays:
# [1] = Inhibition of PKA
# [2] = target: Epidermal growth factor receptor (Homo sapiens, UniProt P00533); test: Inhibition of EGFR
# [3] = Inhibition of PKC
# [4] = target: Cyclin-dependent kinase 2 (Homo sapiens, UniProt P24941); test: Binding affinity to CDK2
# Sequence of Epidermal growth factor receptor (P00533 whole entry): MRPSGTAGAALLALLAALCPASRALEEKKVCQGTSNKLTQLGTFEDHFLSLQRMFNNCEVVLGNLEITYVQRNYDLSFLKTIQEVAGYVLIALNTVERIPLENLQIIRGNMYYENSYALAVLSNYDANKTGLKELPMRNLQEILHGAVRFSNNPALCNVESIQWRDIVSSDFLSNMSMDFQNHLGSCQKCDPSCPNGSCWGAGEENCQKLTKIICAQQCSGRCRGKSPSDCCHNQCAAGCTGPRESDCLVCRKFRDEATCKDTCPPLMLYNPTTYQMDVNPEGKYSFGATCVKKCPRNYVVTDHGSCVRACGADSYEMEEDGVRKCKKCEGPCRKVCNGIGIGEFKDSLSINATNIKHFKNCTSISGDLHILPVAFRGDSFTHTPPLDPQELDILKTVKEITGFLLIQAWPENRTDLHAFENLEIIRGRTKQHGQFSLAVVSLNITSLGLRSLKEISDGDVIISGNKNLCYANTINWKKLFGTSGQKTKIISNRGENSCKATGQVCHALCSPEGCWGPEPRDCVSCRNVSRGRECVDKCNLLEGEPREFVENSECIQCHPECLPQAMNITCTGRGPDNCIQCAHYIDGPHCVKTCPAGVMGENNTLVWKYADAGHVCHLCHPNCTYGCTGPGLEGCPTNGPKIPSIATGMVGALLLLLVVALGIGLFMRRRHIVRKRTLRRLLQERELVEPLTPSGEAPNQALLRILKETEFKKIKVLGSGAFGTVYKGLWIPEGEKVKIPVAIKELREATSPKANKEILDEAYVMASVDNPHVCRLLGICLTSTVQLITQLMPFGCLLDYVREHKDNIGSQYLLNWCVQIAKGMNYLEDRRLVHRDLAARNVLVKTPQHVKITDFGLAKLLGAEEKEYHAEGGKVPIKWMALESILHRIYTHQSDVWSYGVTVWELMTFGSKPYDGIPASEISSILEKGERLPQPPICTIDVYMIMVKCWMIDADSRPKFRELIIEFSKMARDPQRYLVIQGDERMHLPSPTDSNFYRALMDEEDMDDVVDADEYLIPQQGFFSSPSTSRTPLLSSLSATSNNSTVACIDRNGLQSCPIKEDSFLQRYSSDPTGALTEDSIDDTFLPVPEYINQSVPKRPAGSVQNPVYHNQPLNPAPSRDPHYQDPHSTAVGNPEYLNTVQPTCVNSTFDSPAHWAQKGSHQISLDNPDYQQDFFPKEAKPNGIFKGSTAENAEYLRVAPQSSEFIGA
compound,measurement,setting,value
O=C(/C=C/c1ccc(O)c(O)c1)c1ccc(O)cc1O [BUTEIN],IC50,[1],> 500 µM
same,IC50,[2],16 µM
same,IC50,[3],> 500 µM
same,Kd,[4],100 µM
